Experimental data taken from ChEMBL document CHEMBL1177725, “6-(3,4-dichlorophenyl)-1-[(methyloxy)methyl]-3-azabicyclo[4.1.0]heptane: a new potent and selective triple reuptake inhibitor” (J Med Chem, 2010).

Tests used:
Type in all cases: cell-based
[1] = molecular target: Sodium-dependent noradrenaline transporter (Homo sapiens, UniProt P23975); experiment: Displacement of [N-methyl-3H]nisoxetine from human recombinant NET expressed in pig LLCPK cells after 2 hrs by liquid scintillation counting
[2] = molecular target: Sodium-dependent serotonin transporter (Homo sapiens, UniProt P31645); experiment: Displacement of [N-methyl-3H]citalopram from human recombinant SERT expressed in pig LLCPK cells after 2 hrs by liquid scintillation counting
[3] = molecular target: Sodium-dependent dopamine transporter (Homo sapiens, UniProt Q01959); experiment: Displacement of [N-methyl-3H]WIN-35428 from human recombinant DAT expressed in pig LLCPK cells after 2 hrs by liquid scintillation counting
Sodium-dependent dopamine transporter, sequence (Q01959 whole entry): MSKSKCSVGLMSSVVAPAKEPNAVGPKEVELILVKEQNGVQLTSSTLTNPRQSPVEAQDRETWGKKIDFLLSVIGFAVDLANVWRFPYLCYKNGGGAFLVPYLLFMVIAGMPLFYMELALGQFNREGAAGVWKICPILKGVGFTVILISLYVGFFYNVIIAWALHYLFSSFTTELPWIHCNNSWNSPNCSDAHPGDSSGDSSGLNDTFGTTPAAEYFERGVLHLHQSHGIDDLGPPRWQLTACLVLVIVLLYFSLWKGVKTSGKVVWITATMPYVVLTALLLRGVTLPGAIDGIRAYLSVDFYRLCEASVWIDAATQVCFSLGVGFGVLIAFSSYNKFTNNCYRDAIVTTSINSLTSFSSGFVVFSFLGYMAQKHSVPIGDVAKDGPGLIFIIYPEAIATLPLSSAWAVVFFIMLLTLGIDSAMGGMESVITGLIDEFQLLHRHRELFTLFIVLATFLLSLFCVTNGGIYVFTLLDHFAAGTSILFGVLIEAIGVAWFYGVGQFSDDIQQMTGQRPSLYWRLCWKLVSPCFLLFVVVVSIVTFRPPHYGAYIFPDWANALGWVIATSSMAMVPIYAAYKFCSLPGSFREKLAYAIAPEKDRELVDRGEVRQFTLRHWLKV

Sodium-dependent serotonin transporter, sequence (P31645 whole entry): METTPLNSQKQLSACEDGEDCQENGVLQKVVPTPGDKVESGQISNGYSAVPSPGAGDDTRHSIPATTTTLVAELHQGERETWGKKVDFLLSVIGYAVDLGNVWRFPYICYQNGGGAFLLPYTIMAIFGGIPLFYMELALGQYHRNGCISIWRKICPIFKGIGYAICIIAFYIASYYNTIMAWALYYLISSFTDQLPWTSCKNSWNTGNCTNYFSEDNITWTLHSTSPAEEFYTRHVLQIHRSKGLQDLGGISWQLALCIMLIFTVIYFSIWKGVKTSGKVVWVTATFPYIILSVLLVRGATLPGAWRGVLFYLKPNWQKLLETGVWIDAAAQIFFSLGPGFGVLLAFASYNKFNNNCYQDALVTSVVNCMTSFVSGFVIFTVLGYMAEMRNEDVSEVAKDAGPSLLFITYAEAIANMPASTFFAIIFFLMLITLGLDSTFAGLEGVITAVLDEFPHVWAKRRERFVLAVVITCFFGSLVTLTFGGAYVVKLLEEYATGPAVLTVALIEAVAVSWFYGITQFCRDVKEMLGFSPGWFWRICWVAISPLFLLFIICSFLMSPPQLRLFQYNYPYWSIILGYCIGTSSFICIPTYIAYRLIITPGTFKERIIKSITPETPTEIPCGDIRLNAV
Sodium-dependent noradrenaline transporter, sequence (P23975 whole entry): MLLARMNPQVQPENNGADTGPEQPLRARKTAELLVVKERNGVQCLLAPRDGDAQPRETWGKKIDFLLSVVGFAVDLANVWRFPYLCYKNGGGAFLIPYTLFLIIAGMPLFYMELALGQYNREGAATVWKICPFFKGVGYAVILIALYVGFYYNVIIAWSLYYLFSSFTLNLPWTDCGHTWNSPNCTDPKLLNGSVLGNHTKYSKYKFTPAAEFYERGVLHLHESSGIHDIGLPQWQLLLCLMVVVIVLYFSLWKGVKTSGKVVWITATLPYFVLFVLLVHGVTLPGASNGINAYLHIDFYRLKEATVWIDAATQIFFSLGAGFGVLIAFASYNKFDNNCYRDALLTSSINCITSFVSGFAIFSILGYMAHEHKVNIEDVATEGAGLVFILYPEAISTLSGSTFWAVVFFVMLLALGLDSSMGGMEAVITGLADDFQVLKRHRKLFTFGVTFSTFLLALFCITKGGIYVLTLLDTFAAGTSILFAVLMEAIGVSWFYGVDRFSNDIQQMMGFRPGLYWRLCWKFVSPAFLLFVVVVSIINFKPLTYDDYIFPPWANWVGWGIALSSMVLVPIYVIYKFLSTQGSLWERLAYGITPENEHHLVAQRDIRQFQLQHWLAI

## COC[C@@]12CN(C)CC[C@]1(c1ccc(Cl)c(Cl)c1)C2
[1]
  Ki: 794 nM
[2]
  Ki: 12.6 nM
[3]
  Ki: 31.6 nM

## COC[C@@]12CN(C(C)C)CC[C@]1(c1ccc(Cl)c(Cl)c1)C2
[1]
  Ki: 5010 nM
[2]
  Ki: 631 nM
[3]
  Ki: 1260 nM

## Clc1ccc([C@@H]2CCNC[C@@]23CCCOC3)cc1Cl
[1]
  Ki: 3.98 nM
[2]
  Ki: 0.316 nM
[3]
  Ki: 12.6 nM

## C=CCC(OC)[C@]12CNCC[C@]1(c1ccc(Cl)c(Cl)c1)C2 (mixture of isomers; form 2) [6-(3,4-DICHLOROPHENYL)-1-[1-(METHYLOXY)-3-BUTEN-1-YL]-3-AZABICYCLO[4.1.0]HEPTANE (DIASTEREOMERIC MIX)]
[1]
  Ki: 3.98 nM
[2]
  Ki: 1.26 nM
[3]
  Ki: 1.58 nM

## COC[C@@]12CNCC[C@]1(c1ccc(OC(F)(F)F)cc1)C2 (racemic)
[1]
  Ki: 3160 nM
[2]
  Ki: 3.16 nM
[3]
  Ki: 7940 nM

## COC[C@H]1[C@@H]2CNCC[C@@]21c1ccc(Cl)c(Cl)c1 (racemic)
[1]
  Ki: 2000 nM
[2]
  Ki: 50.1 nM
[3]
  Ki: 1260 nM

## COC[C@@H]1[C@@H]2CCNC[C@]12c1ccc(Cl)c(Cl)c1 (racemic)
[1]
  Ki: 63.1 nM
[2]
  Ki: 31.6 nM
[3]
  Ki: 126 nM

## COC[C@@]12CNC[C@H](OC)[C@]1(c1ccc(Cl)c(Cl)c1)C2 (racemic)
[1]
  Ki: 1260 nM
[2]
  Ki: 100 nM
[3]
  Ki: 501 nM

## COC[C@@]12CNC[C@@H](OC)[C@]1(c1ccc(Cl)c(Cl)c1)C2 (racemic)
[1]
  Ki: 1580 nM
[2]
  Ki: 251 nM
[3]
  Ki: 398 nM

## COC[C@@H]1[C@@H]2CNCC[C@]12c1ccc(Cl)c(Cl)c1 (racemic)
[1]
  Ki: 316 nM
[2]
  Ki: 10 nM
[3]
  Ki: 398 nM

## COC[C@@]12CNCC[C@]1(c1ccc(Cl)cc1)C2 (racemic)
[1]
  Ki: 200 nM
[2]
  Ki: 15.8 nM
[3]
  Ki: 251 nM

## COC[C@@]12CNCC[C@]1(c1ccc(F)c(Cl)c1)C2 (racemic)
[1]
  Ki: 316 nM
[2]
  Ki: 1.58 nM
[3]
  Ki: 158 nM

## COC[C@@]12CNCC[C@]1(c1ccc(Cl)c(C(F)(F)F)c1)C2 (racemic)
[1]
  Ki: 200 nM
[2]
  Ki: 15.8 nM
[3]
  Ki: 3160 nM

## COC[C@@]12CNCC[C@]1(c1ccc(C(F)(F)F)c(Cl)c1)C2 (racemic)
[1]
  Ki: 126 nM
[2]
  Ki: 15.8 nM
[3]
  Ki: 1580 nM

## COC[C@@]12CN[C@@H](C)C[C@]1(c1ccc(Cl)c(Cl)c1)C2 (racemic)
[1]
  Ki: 50.1 nM
[2]
  Ki: 7.94 nM
[3]
  Ki: 39.8 nM

## COC[C@@]12CNC[C@H](F)[C@]1(c1ccc(Cl)c(Cl)c1)C2 (racemic)
[1]
  Ki: 100 nM
[2]
  Ki: 5.01 nM
[3]
  Ki: 100 nM

## COC[C@@]12CNC[C@@H](F)[C@]1(c1ccc(Cl)c(Cl)c1)C2 (racemic)
[1]
  Ki: 50.1 nM
[2]
  Ki: 3.98 nM
[3]
  Ki: 100 nM

## FC(F)(F)COC[C@@]12CNCC[C@]1(c1ccc(Cl)c(Cl)c1)C2 (racemic)
[1]
  Ki: 79.4 nM
[2]
  Ki: 6.31 nM
[3]
  Ki: 39.8 nM

## CCOC(=O)[C@@]12CNCC[C@]1(c1ccc(Cl)c(Cl)c1)C2 (racemic)
[1]
  Ki: 7.94 nM
[2]
  Ki: 15.8 nM
[3]
  Ki: 5.01 nM

## NC(=O)[C@@]12CNCC[C@]1(c1ccc(Cl)c(Cl)c1)C2 (racemic)
[1]
  Ki: 794 nM
[2]
  Ki: 100 nM
[3]
  Ki: 251 nM

## CC#CNC(=O)[C@@]12CNCC[C@]1(c1ccc(Cl)c(Cl)c1)C2 (racemic)
[1]
  Ki: 501 nM
[2]
  Ki: 100 nM
[3]
  Ki: 158 nM

## Clc1ccc([C@]23CCNC[C@@]2(COCC2CC2)C3)cc1Cl (racemic) [1-((CYCLOPROPYLMETHOXY)METHYL)-6-(3,4-DICHLOROPHENYL)-3-AZABICYCLO[4.1.0]HEPTANE (ENANTIOMERIC MIX)]
[1]
  Ki: 50.1 nM
[2]
  Ki: 1.26 nM
[3]
  Ki: 12.6 nM

## COC[C@@]12CNCC[C@]1(c1ccc3ccccc3c1)C2 (racemic) [1-(METHOXYMETHYL)-6-(NAPHTHALEN-2-YL)-3-AZABICYCLO[4.1.0]HEPTANE (ENANTIOMERIC MIX)]
[1]
  Ki: 12.6 nM
[2]
  Ki: 0.316 nM
[3]
  Ki: 31.6 nM

## Clc1ccc([C@]23CNCC[C@H]2C3)cc1Cl (racemic) [1-PHENYL-3-AZABICYCLO[4.1.0]HEPTANE (STRUCTURAL MIX)]
[1]
  Ki: 158 nM
[2]
  Ki: 126 nM
[3]
  Ki: 79.4 nM

## CCOC[C@@]12CNCC[C@]1(c1ccc(Cl)c(Cl)c1)C2 (racemic) [6-(3,4-DICHLOROPHENYL)-1-[(ETHYLOXY)METHYL]-3-AZABICYCLO[4.1.0]-HEPTANE (ENANTIOMERIC MIX)]
[1]
  Ki: 10 nM
[2]
  Ki: 1.26 nM
[3]
  Ki: 6.31 nM

## Clc1ccc([C@@]23CCNC[C@@H]2C3)cc1Cl (racemic) [RAC-1-(3,4-DICHLO ROPHENYL)-3-AZABICYCLO[4.1.0]HEPTANE (ENANTIOMERS)]
[1]
  Ki: 251 nM
[2]
  Ki: 25.1 nM
[3]
  Ki: 50.1 nM

## OC[C@@]12CNCC[C@]1(c1ccc(Cl)c(Cl)c1)C2 (racemic) [RAC-1-(3,4-DICHLOROPHENYL)-3-AZABICYCLO[4.1.0]HEPTAN-6-YL)METHANOL (STRUCTURAL MIX)]
[1]
  Ki: 158 nM
[2]
  Ki: 20 nM
[3]
  Ki: 200 nM

## CC(=O)[C@@]12CNCC[C@]1(c1ccc(Cl)c(Cl)c1)C2 (relative stereo)
[1]
  Ki: 15.8 nM
[2]
  Ki: 1 nM
[3]
  Ki: 3.98 nM

## Clc1ccc([C@@]23CCNC[C@@H]2C3)cc1Cl (relative stereo) [RAC-1-(3,4-DICHLO ROPHENYL)-3-AZABICYCLO[4.1.0]HEPTANE (ENANTIOMERS)]
[1]
  Ki: 251 nM
[2]
  Ki: 39.8 nM
[3]
  Ki: 50.1 nM

## COC[C@@]12CCNC[C@]1(c1ccc(Cl)c(Cl)c1)C2 (relative stereo) [RAC-1-(3,4-DICHLOROPHENYL)-6-(METHOXYMETHYL)-2-AZABICYCLO[4.1.0]HEPTANE (ENANTIOMERS)]
[1]
  Ki: 100 nM
[2]
  Ki: 12.6 nM
[3]
  Ki: 63.1 nM

## Clc1ccc([C@]23CNCC[C@H]2C3)cc1Cl (relative stereo; 4) [1-PHENYL-3-AZABICYCLO[4.1.0]HEPTANE (STRUCTURAL MIX)]
[1]
  Ki: 63.1 nM
[2]
  Ki: 79.4 nM
[3]
  Ki: 39.8 nM

## Clc1ccc([C@]23CNCC[C@H]2C3)cc1Cl (relative stereo; 5) [1-PHENYL-3-AZABICYCLO[4.1.0]HEPTANE (STRUCTURAL MIX)]
[1]
  Ki: 398 nM
[2]
  Ki: 251 nM
[3]
  Ki: 100 nM

## OC[C@@]12CNCC[C@]1(c1ccc(Cl)c(Cl)c1)C2 (relative stereo; 14) [RAC-1-(3,4-DICHLOROPHENYL)-3-AZABICYCLO[4.1.0]HEPTAN-6-YL)METHANOL (STRUCTURAL MIX)]
[1]
  Ki: 398 nM
[2]
  Ki: 39.8 nM
[3]
  Ki: 100 nM

## OC[C@@]12CNCC[C@]1(c1ccc(Cl)c(Cl)c1)C2 (relative stereo; 15) [RAC-1-(3,4-DICHLOROPHENYL)-3-AZABICYCLO[4.1.0]HEPTAN-6-YL)METHANOL (STRUCTURAL MIX)]
[1]
  Ki: 100 nM
[2]
  Ki: 7.94 nM
[3]
  Ki: 79.4 nM

## CCOC[C@@]12CNCC[C@]1(c1ccc(Cl)c(Cl)c1)C2 (relative stereo; 30) [6-(3,4-DICHLOROPHENYL)-1-[(ETHYLOXY)METHYL]-3-AZABICYCLO[4.1.0]-HEPTANE (ENANTIOMERIC MIX)]
[1]
  Ki: 100 nM
[2]
  Ki: 10 nM
[3]
  Ki: 63.1 nM

## CCOC[C@@]12CNCC[C@]1(c1ccc(Cl)c(Cl)c1)C2 (relative stereo; 31) [6-(3,4-DICHLOROPHENYL)-1-[(ETHYLOXY)METHYL]-3-AZABICYCLO[4.1.0]-HEPTANE (ENANTIOMERIC MIX)]
[1]
  Ki: 7.94 nM
[2]
  Ki: 1 nM
[3]
  Ki: 3.98 nM

## Clc1ccc([C@]23CCNC[C@@]2(COCC2CC2)C3)cc1Cl (relative stereo; 34) [1-((CYCLOPROPYLMETHOXY)METHYL)-6-(3,4-DICHLOROPHENYL)-3-AZABICYCLO[4.1.0]HEPTANE (ENANTIOMERIC MIX)]
[1]
  Ki: 20 nM
[2]
  Ki: 0.398 nM
[3]
  Ki: 3.16 nM

## Clc1ccc([C@]23CCNC[C@@]2(COCC2CC2)C3)cc1Cl (relative stereo; 35) [1-((CYCLOPROPYLMETHOXY)METHYL)-6-(3,4-DICHLOROPHENYL)-3-AZABICYCLO[4.1.0]HEPTANE (ENANTIOMERIC MIX)]
[1]
  Ki: 126 nM
[2]
  Ki: 3.98 nM
[3]
  Ki: 63.1 nM

## Clc1ccc([C@@]23CCNC[C@@H]2C3)cc1Cl (single isomer, unassigned) [RAC-1-(3,4-DICHLO ROPHENYL)-3-AZABICYCLO[4.1.0]HEPTANE (ENANTIOMERS)]
[1]
  Ki: 100 nM
[2]
  Ki: 12.6 nM
[3]
  Ki: 25.1 nM

## COC[C@@]12CCNC[C@]1(c1ccc(Cl)c(Cl)c1)C2 (single isomer, unassigned) [RAC-1-(3,4-DICHLOROPHENYL)-6-(METHOXYMETHYL)-2-AZABICYCLO[4.1.0]HEPTANE (ENANTIOMERS)]
[1]
  Ki: 1000 nM
[2]
  Ki: 158 nM
[3]
  Ki: 631 nM

## COC[C@@]12CNCC[C@]1(c1ccc3ccccc3c1)C2 (single isomer, unassigned; 27) [1-(METHOXYMETHYL)-6-(NAPHTHALEN-2-YL)-3-AZABICYCLO[4.1.0]HEPTANE (ENANTIOMERIC MIX)]
[1]
  Ki: 39.8 nM
[2]
  Ki: 1 nM
[3]
  Ki: 100 nM

## Clc1ccc([C@]23CCN4CC[C@]2(C4)C3)cc1Cl (single isomer, unassigned; 49) [3-(3,4-DICHLORO-PHENYL)-6-AZA-TRICYCLO[4.2.1.0*1,3*]NONANE (STRUCTURAL MIX)]
[1]
  Ki: 63.1 nM
[2]
  Ki: 1.58 nM
[3]
  Ki: 79.4 nM

## Clc1ccc([C@]23CCN4CC[C@]2(C4)C3)cc1Cl (single isomer, unassigned; 50) [3-(3,4-DICHLORO-PHENYL)-6-AZA-TRICYCLO[4.2.1.0*1,3*]NONANE (STRUCTURAL MIX)]
[1]
  Ki: 794 nM
[2]
  Ki: 31.6 nM
[3]
  Ki: 251 nM
